Data reported in patent US20220135666A1, “TREATMENT OF A DISEASE OF THE GASTROINTESTINAL TRACT WITH A S1P MODULATOR” (Progenity, Inc., priority 2017, published 2022).

Legend:
[1] = Tissue, plasma and GI content pharmacokinetics of tacrolimus, oral vs intra-cecal ingestible device (Example 10); design: species or system Yorkshire-Cross farm swine; details: in vivo
Method: The primary objective of this study was to compare the tissue, plasma, rectal sample, and GI content pharmacokinetics of tacrolimus through oral versus intra-cecal ingestible device delivery in normal Yorkshire-Cross farm swine.
(§1) No further randomization procedure was employed.
Animals in Group 1 received an ingestible device containing 0.8 mL of vehicle solution (80% alcohol, 20% HCO-60). Animals in Group 2 received orally […] liquid formulation of tacrolimus at 4 mg/0.8 mL per animal (Prograf: 5 mg/mL). Animals in Group 3 received intracecally an ingestible device containing tacrolimus at 1 mg in 0.8 mL per ingestible device. […]
Approximately 200˜400 mg of rectal content were collected, if available, with a fecal swab (Copan Diagnostics Nylon Flocked Dry Swabs, 502CS01). The fecal swab was pre-weighed and weighed after collection in the collection tube (Sterile Tube and Cap No Media, PFPM913S), and the sample weight was recorded. […]
For tissue necropsy, small intestine fluid and cecal fluid were collected separately from all the animals into two separate square plastic bottles, and stored at −20° C. The length and diameter of the cecum and the colon was measured from one animal in each group and recorded for reference. […] All samples were weighed, and the tissue sample weights were recorded. […]

[2] = Pharmacokinetic study of oral vs intra-cecal administration of tacrolimus (Example 13); design: species or system Yorkshire-Cross farm swine; details: female, Yorkshire-Cross, in vivo, 0.09 mg/kg
Excerpt: as §1

level detected in tissue [1]: No measurable level
Ratio Tissue (mean) (ng/g)/AUG(0-12 hr) (ng · hr/mL) ([2]; pig, 12 h): 0
Trough (12 hr) ([2]; pig, 12 h): 0.568 ng/mL
Kp at 12 h ([2]; swine): 0
Ratio Tissue (mean) (ng/g)/Tough(12 hr)(ng/mL) ([2]; swine, 12 h): 0
Compound: C=CC[C@@H]1/C=C(\C)C[C@H](C)C[C@H](OC)[C@H]2O[C@@](O)(C(=O)C(=O)N3CCCC[C@H]3C(=O)O[C@H](/C(C)=C/[C@@H]3CC[C@@H](O)[C@H](OC)C3)[C@H](C)[C@@H](O)CC1=O)[C@H](C)C[C@@H]2OC [tacrolimus]
